# From the OligoGym collection
# “And” between values parts separate entries of the source, which are not always exact repeats. Equal values may be shown once. After the bases stand the sugars from the 5' end (letter, count) and the backbone: PS all phosphorothioate, else s phosphorothioate and o phosphodiester by linkage. Methylation of C is not given here. e = 2'-O-(2-methoxyethyl) (MOE); k = constrained ethyl (cEt); d = 2'-deoxy (DNA)
# Target: IRF4
# Settings: ASO
sequence,measurement,setting,value
"TACACCTACACAGGCT (sugars k3 d10 k3, PS)",target mRNA inhibition,"SK-MEL-28, 4 µM",19%
"TACAGGCACGGCTTCA (sugars k3 d10 k3, PS)",target mRNA inhibition,"SK-MEL-28, 4 µM",58%
"TACCAACGACAGCATA (sugars k3 d10 k3, PS)",target mRNA inhibition,"SK-MEL-28, 4 µM",61%
"TACCAGCTCAATAATC (sugars k3 d10 k3, PS)",target mRNA inhibition,"MM.1R, 1 µM",-27%
"TACCTACAAGCAGTCA (sugars k3 d10 k3, PS)",target mRNA inhibition,"SK-MEL-28, 4 µM",56%
"TACGAGCACATGTCAA (sugars k3 d10 k3, PS)",target mRNA inhibition,"SK-MEL-28, 4 µM",36%
"TACGCTTATTTTTCCA (sugars k3 d10 k3, PS)",target mRNA inhibition,"MM.1R, 0.0625 µM",1% and 12%
same,target mRNA inhibition,"MM.1R, 0.25 µM",29% and 44%
same,target mRNA inhibition,"MM.1R, 1 µM",51% and 56%
same,target mRNA inhibition,"MM.1R, 4 µM",65% and 77%
"TACTCTTAGGCACATC (sugars k3 d10 k3, PS)",target mRNA inhibition,"SK-MEL-28, 4 µM",59%
"TACTGCTTGAGGTTTT (sugars k2 d9 e3 k2, PS)",target mRNA inhibition,"MM.1R, 1 µM",10%
"TACTGCTTGAGGTTTT (sugars k3 d9 k3 e1, PS)",target mRNA inhibition,"MM.1R, 1 µM",13%
"TACTGCTTGAGGTTTT (sugars kkdddddddddkdkdk, PS)",target mRNA inhibition,"MM.1R, 1 µM",15%
"TACTGCTTGAGGTTTT (sugars kkkdddddddddkeke, PS)",target mRNA inhibition,"MM.1R, 1 µM",7%
"TACTGCTTGAGGTTTT (sugars kkkddddddddkekek, PS)",target mRNA inhibition,"MM.1R, 1 µM",-8%
"TACTGTTACCGATGCT (sugars kkddddddddddkeke, PS)",target mRNA inhibition,"MM.1R, 1 µM",24% and 17%
"TACTTAAGCAAGTGGA (sugars k3 d10 k3, PS)",target mRNA inhibition,"SK-MEL-28, 4 µM",75% and 71%
"TAGAATGAGAGGTGTC (sugars k3 d10 k3, PS)",target mRNA inhibition,"SK-MEL-28, 4 µM",29%
"TAGAATGCATAACACG (sugars k3 d10 k3, PS)",target mRNA inhibition,"MM.1R, 1 µM",8%
"TAGACTGACAGCCGAA (sugars k3 d10 k3, PS)",target mRNA inhibition,"MM.1R, 1 µM",3%
"TAGCATCAGAGCTAGA (sugars k3 d10 k3, PS)",target mRNA inhibition,"SK-MEL-28, 4 µM",49%
"TAGCATGTATGCATTC (sugars k3 d10 k3, PS)",target mRNA inhibition,"SK-MEL-28, 4 µM",52%
"TAGCCAATTCCTCCAC (sugars k3 d10 k3, PS)",target mRNA inhibition,"MM.1R, 1 µM",1%
"TAGGAGTGTAACTGAG (sugars k3 d10 k3, PS)",target mRNA inhibition,"SK-MEL-28, 4 µM",37%
"TAGGGATACAGCAGGC (sugars k3 d10 k3, PS)",target mRNA inhibition,"SK-MEL-28, 4 µM",73%
"TAGGTATACTTAAGCA (sugars k3 d10 k3, PS)",target mRNA inhibition,"SK-MEL-28, 4 µM",79%
"TAGTATGAGAAACGGC (sugars kddddddddddkekek, PS)",target mRNA inhibition,"MM.1R, 1 µM",24%
"TAGTATGAGAAACGGC (sugars kkddddddddddkeke, PS)",target mRNA inhibition,"MM.1R, 1 µM",46%
"TAGTATGAGAAACGGC (sugars kkdddddddddekeke, PS)",target mRNA inhibition,"MM.1R, 1 µM",50%
"TAGTATGAGAAACGGC (sugars kkdddddddddkdkdk, PS)",target mRNA inhibition,"MM.1R, 1 µM",39%
"TAGTATGAGAAACGGC (sugars kkkddddddddkekek, PS)",target mRNA inhibition,"MM.1R, 1 µM",30%
"TAGTGTTCCAGGAGAT (sugars k3 d10 k3, PS)",target mRNA inhibition,"MM.1R, 0.074 µM",15%
same,target mRNA inhibition,"MM.1R, 0.222 µM",29%
same,target mRNA inhibition,"MM.1R, 0.666 µM",52%
same,target mRNA inhibition,"MM.1R, 1 µM",53%
same,target mRNA inhibition,"MM.1R, 2 µM",80%
"TAGTTAAGTACTTGGA (sugars k3 d10 k3, PS)",target mRNA inhibition,"SK-MEL-28, 4 µM",56%
"TAGTTTAAGGGTTACG (sugars k3 d10 k3, PS)",target mRNA inhibition,"SK-MEL-28, 4 µM",49%
"TATACTTAAGCAAGTG (sugars k3 d10 k3, PS)",target mRNA inhibition,"SK-MEL-28, 4 µM",47%
"TATAGAGCATCACTAT (sugars k3 d10 k3, PS)",target mRNA inhibition,"SK-MEL-28, 4 µM",41%
"TATAGTAGGTAAGATC (sugars k3 d10 k3, PS)",target mRNA inhibition,"SK-MEL-28, 4 µM",13%
"TATATGACGACTTAAG (sugars k3 d10 k3, PS)",target mRNA inhibition,"SK-MEL-28, 4 µM",30%
"TATTACCATGCATAGT (sugars k3 d10 k3, PS)",target mRNA inhibition,"SK-MEL-28, 4 µM",30%
"TCAAAAGTCTTAAGGG (sugars k3 d10 k3, PS)",target mRNA inhibition,"SK-MEL-28, 4 µM",7%
"TCAAACACTAATACCT (sugars k3 d10 k3, PS)",target mRNA inhibition,"SK-MEL-28, 4 µM",25%
"TCAAACCCTACTGGGT (sugars k3 d10 k3, PS)",target mRNA inhibition,"SK-MEL-28, 4 µM",8%
"TCAAAGTCATTGCTCT (sugars k3 d10 k3, PS)",target mRNA inhibition,"SK-MEL-28, 4 µM",21%
"TCAACCGCTGAACTGA (sugars k3 d10 k3, PS)",target mRNA inhibition,"SK-MEL-28, 4 µM",35%
"TCAAGAGGAACTAGTC (sugars k3 d10 k3, PS)",target mRNA inhibition,"SK-MEL-28, 4 µM",24%
"TCAAGTAAAGTGATCA (sugars k3 d10 k3, PS)",target mRNA inhibition,"SK-MEL-28, 4 µM",48%
"TCACAGATTAATAGTA (sugars k3 d10 k3, PS)",target mRNA inhibition,"SK-MEL-28, 4 µM",23%
"TCACAGTGATCATCAA (sugars k3 d10 k3, PS)",target mRNA inhibition,"SK-MEL-28, 4 µM",43%
"TCACATGATAAGGCAC (sugars k3 d10 k3, PS)",target mRNA inhibition,"MM.1R, 1 µM",19%
"TCACCTGAAGGATTTG (sugars k3 d10 k3, PS)",target mRNA inhibition,"SK-MEL-28, 4 µM",25%
"TCACCTGGCAACCTGC (sugars k3 d10 k3, PS)",target mRNA inhibition,"SK-MEL-28, 4 µM",25%
"TCACGAAACACAGTCT (sugars k3 d10 k3, PS)",target mRNA inhibition,"SK-MEL-28, 4 µM",68%
"TCACTAAGCTTGATAA (sugars k3 d10 k3, PS)",target mRNA inhibition,"SK-MEL-28, 4 µM",37%
"TCAGAAATCACGAGGT (sugars k3 d10 k3, PS)",target mRNA inhibition,"MM.1R, 0.0625 µM",-11%
same,target mRNA inhibition,"MM.1R, 0.25 µM",-5%
same,target mRNA inhibition,"MM.1R, 4 µM",37%
"TCAGATTTACACCGTT (sugars k3 d10 k3, PS)",target mRNA inhibition,"MM.1R, 1 µM",14%
